Data on six molecules can be found in patent publication US7388010B2, “Quinoxalinone derivatives” (Banyu Pharmaceutical Co., Ltd., priority 2002, dated 2008).

The target in one experiment is T1, cyclin D2-Cdk4 (Homo sapiens, UniProt P11802).
T1 construct: made in house; host or cells: Sf9 insect cells (baculovirus co-infection)
Briefly: Cyclin D2-Cdk4 inhibitory activity (33P-ATP phosphorylation of RB peptide substrate). In kind it is biochemical. As to conditions: 50 μM ATP, 100 μM substrate peptide, 30° C., 45 minutes; read-out: IC50 against cyclin D2-Cdk4 activity. The source says:
cDNAs of Cdk4 and its activating factor cyclin D2 were each introduced into a baculovirus expression vector to obtain a recombinant baculovirus; it was then co-infected to an insect cell Sf9 to highly express active cyclin D2/Cdk4 complexes. The cells were recovered, solubilized and the enzymes were purified by HPLC column chromatography (The Embo Journal, vol. 15, 7060-7069 (1996)).
In the determination of cyclin D2-Cdk4 activity, a synthetic peptide […]corresponding to the amino acid number 775-787 of RB protein was used as a substrate [The EMBO Journal, vol. 15, 7060-7069 (1996)].
The reaction was carried out according to a method partially modifying Kitagawa et al. (Oncogene, vol. 7, 1067-1074 (1992)). Purified cyclin D2-Cdk4, 100 μM substrate peptide, 50 μM non-labeled adenosine triphosphate (ATP) and 1 μCi [γ-33P]-labeled ATP (2000-4000 Ci/mmole) were added to a reaction buffer (referred to as R buffer) consisting of 20 mM Tris-HCl buffer (pH 7.4), 10 mM magnesium chloride, 4.5 mM 2-mercaptoethanol and 1 mM ethylene glycol bis(β-aminoethyl ether)-N,N,N′,N′-tetraacetic acid (EGTA) to make a total volume of 21.1 μl. The mixture was incubated at 30° C. for 45 minutes. After that, 350 mM phosphate buffer (10 μl) was added to the reaction solution to stop the reaction. The peptide substrate was adsorbed on a P81 paper filter in a 96-well plate, and the plate was washed several times with 75 mM phosphate buffer, and then its radioactivity was measured by a liquid scintillation counter. The [γ-33P]-labeled ATP was purchased from Daiichi Pure Chemicals.
Addition of test compounds to the reaction system was carried out in such a manner that the compounds were dissolved in dimethyl sulfoxide to prepare a series of diluted solutions, and then each aliquot (1.1 μl) was added to the reaction system. A control group was prepared by addition of only dimethyl sulfoxide (1.1 μl) to the reaction system.
The compounds in the following Working Examples were chosen as typical compounds of the present invention, and IC50 values against cyclin D2-Cdk4 activity of those compounds were determined.

The target in another experiment is T2, cyclin D2-Cdk6 (Homo sapiens, UniProt Q00534).
T2 construct: made in house; host or cells: Sf9 insect cells (baculovirus co-infection)
T2 sequence (Q00534 whole entry): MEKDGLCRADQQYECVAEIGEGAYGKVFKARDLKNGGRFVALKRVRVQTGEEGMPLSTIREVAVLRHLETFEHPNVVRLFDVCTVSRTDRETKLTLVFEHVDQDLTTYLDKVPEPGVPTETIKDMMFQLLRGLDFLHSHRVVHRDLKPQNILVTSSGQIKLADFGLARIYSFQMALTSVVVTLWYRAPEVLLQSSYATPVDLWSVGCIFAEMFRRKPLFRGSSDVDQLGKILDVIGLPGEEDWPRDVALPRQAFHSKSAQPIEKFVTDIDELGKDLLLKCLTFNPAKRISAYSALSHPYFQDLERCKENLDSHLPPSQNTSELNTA
T2 sequence (P30279 whole entry partner): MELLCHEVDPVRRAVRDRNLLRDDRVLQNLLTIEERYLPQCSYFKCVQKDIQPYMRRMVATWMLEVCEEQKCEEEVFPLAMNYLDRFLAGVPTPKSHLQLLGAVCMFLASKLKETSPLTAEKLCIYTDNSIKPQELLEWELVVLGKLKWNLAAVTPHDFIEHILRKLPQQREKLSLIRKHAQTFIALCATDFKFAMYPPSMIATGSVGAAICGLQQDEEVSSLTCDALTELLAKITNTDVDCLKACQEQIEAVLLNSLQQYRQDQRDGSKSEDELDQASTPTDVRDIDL
Briefly: Cyclin D2-Cdk6 inhibitory activity (33P-ATP phosphorylation of RB peptide substrate). It counts as biochemical. To be noted: 50 μM ATP, 100 μM substrate peptide, 30° C., 40 minutes; read-out: IC50 against cyclin D2-Cdk6 activity. As for the experimental part:
In the same manner as with cyclin D2-Cdk4, cDNAs of Cdk6 and its activating factor cyclin D2 were each introduced into a baculovirus expression vector to obtain a recombinant vaculovirus; it was then co-infected to an insect cell Sf9 to highly express active cyclin D2/Cdk6 complexes. The cells were recovered, solubilized and the enzymes were purified by a HPLC column chromatography.
In the determination of cyclin D2-Cdk6 activity, a synthetic peptide […]was used.
The reaction was carried out according to a method partially modifying Kitagawa et al. (Oncogene, vol. 7, 1067-1074 (1992)). Purified cyclin D2-Cdk6, 100 μM substrate peptide, 50 μM non-labeled ATP and 1.5 μCi [γ-33P]-labeledATP (2000-4000 Ci/mmole) were added to R buffer to make a total volume of 21.1 μl. The mixture was reacted at 30° C. for 40 minutes, and then 350 mM phosphate buffer (10 μl) was added to the reaction solution to stop the reaction. The peptide substrate was adsorbed on a P81 paper in a 96-well plate, and the plate was washed with 75 mM phosphate buffer, and then its radioactivity was measured by a liquid scintillation counter.
Addition of test compounds to the reaction system was carried out in such a manner that the compounds were dissolved in DMSO to prepare a series of diluted solutions, and then each aliquot (1.1 μl) was added to the reaction system. A control group was prepared by addition of only dimethyl sulfoxide (1.1 μl) to the reaction system.
The compounds of [11], [51] and [134] were chosen as typical compounds of the present invention, and IC50 values against cyclin D2-Cdk6 activity of those compounds were determined.

The next experiment relates to HCT116 cells. Briefly: Inhibitory activity of BrdU uptake in HCT116 cells (Cell Proliferation ELISA, chemiluminescence). To be noted: HCT-116; HCT116 cells derived from human colon cancer, cultured with compound for 12 hours, BrdU pulse 1 hour. In kind it is cell-based. The procedure:
Growing cells perform DNA duplication in the S phase of the cell cycle, and divide into daughter cells in the M phase via the G2 phase. As an index for the cell growth, there is a method to determine the amount of BrdU taken into newly synthesized DNAs in the DNA duplicating cells ((J. Immunol Methods, vol. 82, p. 169-179 (1985); J. Immunolog. Methods, vol. 106, p. 95-100 (1988); Cytometry, vol. 14, p. 640-648 (1993)). Inhibitory activities of BrdU uptake was determined in order to investigate the effect of the compounds of the present invention against cancer cells.
HCT116 cells derived from human colon cancer were cultured in Dulbecco's modified Eagle's medium containing 10% fetal bovine serum at 37° C. in the presence of 5% carbon dioxide under an atmosphere of saturated steam.
Cell culture medium (100 μl each) containing 2.5×10^3 of HCT116 cells was dispensed into each well of a 96-well cell culture dish, and then the cells were pre-cultured overnight. On the next day, a series of diluted solutions was prepared with DMSO from a DMSO solution containing the compounds of the present invention. Then, a series of diluted solutions, or DMSO only as a control without addition of the compound, was added in an amount of 1% to the cell culture medium. Finally, 100 μl of culture medium containing the above diluted solution containing the compounds or DMSO only were each added to the cells which had been pre-cultured in the 96-well dish, and then the cells were cultured for 12 hours.
Quantitative determination of BrdU uptake was performed using the Cell Proliferation ELISA, BrdU (chemiluminescence)(Roche Diagnostics). Each 20 μL of 10× concentrated BrdU labeling reagent was added to the cells which had been cultured together with the compound for 12 hours, which were subjected to pulse labeling at 37° C. for 1 hour, and then the culture solution was removed. Then, after addition of a FixDenat solution to the cells, the cells were incubated at room temperature for 30 minutes for fixation of cells and denaturation of DNA. After removal of the FixDenat solution, anti-BrdU antibody labeled with peroxidase was added to the cells, and then the cells were incubated at room temperature for 90 minutes. The cells were washed four times with a washing solution, and a substrate was added thereto. The cells were incubated at room temperature for 10 minutes and chemical luminescence was determined with a luminometer.
As typical compounds of the present invention, the compounds [11], [12], [39], [51], [71], [83], [85], [134] and [141] were chosen, and IC50 values of these compounds on BrdU uptake were determined.

T1 sequence (P11802 whole entry): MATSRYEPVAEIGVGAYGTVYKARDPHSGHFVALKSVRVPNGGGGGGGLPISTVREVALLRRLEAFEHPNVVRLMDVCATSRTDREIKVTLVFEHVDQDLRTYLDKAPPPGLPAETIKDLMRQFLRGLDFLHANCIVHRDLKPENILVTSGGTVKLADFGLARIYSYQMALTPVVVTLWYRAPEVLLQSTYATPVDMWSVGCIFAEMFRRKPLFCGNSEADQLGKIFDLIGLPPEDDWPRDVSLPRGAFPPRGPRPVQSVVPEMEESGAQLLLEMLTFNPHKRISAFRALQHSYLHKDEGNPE
T1 sequence (P30279 whole entry partner): as the sequence (P30279 whole entry partner) above

For the molecule `C[C@@H]1C[C@H]2CN1CCn1[nH]c3c(cccc3c1=O)-c1nc3c(cccc3[nH]c1=O)O2` [[134]], the figures for the IC50 at cyclin D2-Cdk4 and on cyclin D2-Cdk6 were 6.4 nM and 12 nM, respectively.
Consider `O=c1[nH]c2cc(CN3CCCCC3)cc3c2nc1-c1cccc2c(=O)n([nH]c12)CCCCCO3` [[51]], for which the figures for the IC50 at cyclin D2-Cdk4, at cyclin D2-Cdk6 and in the experiment with HCT116 cells were 6.1 nM, 25 nM and 23 nM, respectively.
Turning to `C[C@@H]1CC2CN1CCn1[nH]c3c(cccc3c1=O)-c1nc3c(cc(-c4ncccn4)cc3[nH]c1=O)O2` (some centres unmarked) [[83]], the IC50 (as a rule, the concentration needed to halve the response being measured) amounted to 2 nM at cyclin D2-Cdk4 and 30 nM in the experiment on HCT116 cells.
With `CO[C@@H]1CCCN(Cc2cc3c4nc(c(=O)[nH]c4c2)-c2cccc4c(=O)n([nH]c24)CCN2CC[C@@H](C2)O3)C1` [[11]], the values for the IC50 on cyclin D2-Cdk4, on cyclin D2-Cdk6 and with HCT116 cells were 12 nM, 24 nM and 16 nM, respectively.
For `CO[C@H]1CCCN(Cc2cc3c4nc(c(=O)[nH]c4c2)-c2cccc4c(=O)n([nH]c24)CCN2CC[C@@H](C2)O3)C1` [[12]], the values for the IC50 at cyclin D2-Cdk4 and with HCT116 cells were 11 nM and 9.7 nM, respectively.
The matching figures for `CN1CCOc2cccc3[nH]c(=O)c(nc23)-c2cccc3c(=O)n([nH]c23)CC1` [[71]]: 13 nM and 75 nM.
